Counter-ions that a name gives are not always drawn.

The term melting point denotes the temperature, or range, at which the solid turns liquid.

`C[C@H](NC(=O)c1c(CN2CCNCC2)c(-c2ccccc2)nc2ccc(F)cc12)C1CCCCC1` [Example 24, 6-Fluoro-2-phenyl-3-piperazin-1-ylmethylquinoline-4-carboxylic acid ((S)-1-cyclohexylethyl)-amide] gave a melting point of 154 to 158 °C.
Under `CCOC(=O)C1CCCN(/C(=C\[N+](=O)[O-])N2CCN(Cc3c(-c4ccccc4)nc4ccccc4c3C(=O)N[C@@H](C)c3ccccc3)CC2)C1` (stereo partly drawn) [Example 15, 1-(2-Nitro-1-{4-[2-phenyl-4-((S)-1-phenyl-ethylcarbamoyl)-quinolin-3-ylmethyl]-piperazin-1-yl}-vinyl)-piperidine-3-carboxylic acid ethyl ester] stands 120 to 121 °C.
In turn, `C[C@H](NC(=O)c1c(CN2CCNC(=O)C2)c(-c2ccc(C(F)(F)F)cc2)nc2ccccc12)C1CCCCC1` [Example 45, 3-(3-Oxopiperazin-1-ylmethyl)-2-(4-trifluoromethylphenyl)quinoline-4-carboxylic acid ((S)-1-cyclohexylethyl)-amide] had a melting point of 214 to 217 °C.
Then `CC[C@H](NC(=O)c1c(CN2CCNC(=O)C2)c(-c2ccccc2)nc2ccccc12)c1ccccc1` [Example 40, 3-(3-Oxo-piperazin-1-ylmethyl)-2-phenyl-quinoline-4-carboxylic acid((S)-1-phenyl-propyl)-amide], with 160 °C.
Under `C[C@H](NC(=O)c1c(CN2CCNCC2=O)c(-c2ccccc2)nc2ccccc12)C1CCCCC1` [Example 30, 3-(2-Oxopiperazin-1-ylmethyl)-2-phenylquinoline-4-carboxylic acid ((S)-1-cyclohexylethyl)-amide] stands 212 °C; under `C[C@H](NC(=O)c1c(CN2CCN(Cc3ccccc3)C(=O)C2)c(-c2ccccc2)nc2ccccc12)C1CCCCC1` [Example 33, 3-(4-Benzyl-3-oxopiperazin-1-ylmethyl)-2-phenylquinoline-4-carboxylic acid ((S)-1-cyclohexylethyl)-amide], 181 °C.
Then `C[C@H](NC(=O)c1c(CN2CCNC(=O)C2)c(-c2ccccc2)nc2ccc(F)cc12)C1CCCCC1` [Example 32, 6-Fluoro-3-(3-oxo-piperazin-1-ylmethyl)-2-phenyl-quinoline-4-carboxylic acid ((S)-1-cyclohexyl-ethyl)-amide], with 230 °C; and `C[C@@H](NC(=O)c1c(CN2CCNCC2)c(-c2ccccc2)nc2ccccc12)C1CCCCC1` [Example 5, 2-Phenyl-3-piperazin-1-ylmethyl-quinoline-4-carboxylic acid((R)-1-cyclohexyl-ethyl)-amide], with 118 to 120 °C; and `COc1cc2nc(-c3ccccc3)c(CN3CCNCC3)c(C(=O)N[C@@H](C)C3CCCCC3)c2cc1OC` [Example 10, 6,7-Dimethoxy-2-phenyl-3-piperazin-1-ylmethyl-quinoline-4-carboxylic acid ((S)-1-cyclohexyl-ethyl)-amide], with 130 to 132 °C.
In turn, `C[C@H](NC(=O)c1c(CN2CC(=O)NC(=O)C2)c(-c2ccccc2)nc2ccccc12)C1CCCCC1` [Example 29, 3-(3,5-Dioxopiperazin-1-ylmethyl)-2-phenylquinoline-4-carboxylic acid ((S)-1-cyclohexylethyl)-amide] gave a melting point of 124 °C.
Under `CC(C)[C@H](NC(=O)c1c(CN2CCN(/C(=C/[N+](=O)[O-])N3CCCC3)CC2)c(-c2ccccc2)nc2ccccc12)c1ccccc1` [Example 13, 3-[4-(2-Nitro-1-pyrrolidin-1-yl-vinyl)-piperazin-1-ylmethyl]-2-phenyl-quinoline-4-carboxylic acid ((S)-2-methyl-1-phenyl-propyl)-amide] stands 170 to 175 °C; under `C[C@H](NC(=O)c1c(CN2CCN(CC(Cc3ccccc3)C(=O)O)CC2)c(-c2ccccc2)nc2ccccc12)C1CCCCC1` (mixture of isomers) [Example 17, 2-Benzyl-3-{4-[4-((S)-1-cyclohexyl-ethylcarbamoyl)-2-phenyl-quinolin-3-ylmethyl]-piperazin-1-yl}-propionic acid], 136 °C; under `C[C@H](NC(=O)c1c(CN2CCN(CCO)C(=O)C2)c(-c2ccccc2)nc2ccccc12)C1CCCCC1` (as salt: hydrochloride) [Example 37, 3-[4-(2-Hydroxyethyl)-3-oxopiperazin-1-ylmethyl]-2-phenylquinoline-4-carboxylic acid ((S)-1-cyclohexyl-ethyl)-amide dihydrochloride], 171 to 173 °C.
Then `C[C@H](NC(=O)c1c(CN2CC(=O)NCC2=O)c(-c2ccccc2)nc2ccccc12)C1CCCCC1` [Example 31, 3-(2,5-Dioxo-piperazin-1-ylmethyl)-2-phenyl-quinoline-4-carboxylic acid ((S)1-cyclohexylethyl)-amide], with 251 °C.
Then `C[C@H](NC(=O)c1c(CN2CCNC(=O)C2)c(-c2ccccc2)nc2cc3c(cc12)OCCO3)C1CCCCC1` [Example 38, 8-(3-Oxo-piperazin-1-ylmethyl)-7-phenyl-2,3-dihydro-[1,4]dioxino[2,3-g]quinoline-9-carboxylic acid ((S)-1-cyclohexyl-ethyl)-amide], with 144 to 145 °C; and `C[C@H](NC(=O)c1c(CN2CCN(CCN3CCCCC3)C(=O)C2)c(-c2ccccc2)nc2ccccc12)C1CCCCC1` [Example 43, 3-[3-Oxo-4-(2-piperidin-1-ylethyl)piperazin-1-ylmethyl]-2-phenylquinoline-4-carboxylic acid ((S)-1-cyclohexylethyl)amide], with 160 °C; and `CC(CN1CCN(Cc2c(-c3ccccc3)nc3ccccc3c2C(=O)N[C@@H](C)c2ccccc2)CC1)C(=O)O` (stereo partly drawn) [Example 14, 2-Methyl-3-{4-[2-phenyl-4-((S)-1-phenyl-ethylcarbamoyl)-quinolin-3-ylmethyl]-piperazin-1-yl}-propionic acid], with 137 to 138 °C.
`C[C@H](NC(=O)c1c(CN2CCN(CC(N)=O)CC2)c(-c2ccccc2)nc2ccccc12)C1CCCCC1` [Example 19, 3-(4-Carbamoylmethyl-piperazin-1-ylmethyl)-2-phenyl-quinoline-4-carboxylic acid ((S)-1-cyclohexyl-ethyl)-amide] gave a melting point of 125 to 130 °C.
Consider `CC(C)[C@H](NC(=O)c1c(CN2CCNC(=O)C2)c(-c2ccccc2)nc2ccccc12)c1ccccc1` [Example 42, 3-(3-Oxo-piperazin-1-ylmethyl)-2-phenyl-quinoline-4-carboxylic acid ((S)-2-methyl-1-phenyl-propyl)-amide], for which the melting point is 137 °C.
Under `C[C@H](NC(=O)c1c(CN2CCNC(=O)C2)c(-c2cccs2)nc2ccccc12)C1CCCCC1` [Example 41, 3-(3-Oxo-piperazin-1-ylmethyl)-2-thiophen-2-yl-quinoline-4-carboxylic acid ((S)-1-cyclohexylethyl)-amide] stands 225 to 230 °C; under `CCOC(=O)C(CN1CCN(Cc2c(-c3ccccc3)nc3ccccc3c2C(=O)N[C@@H](C)C2CCCCC2)CC1)c1ccccc1` (stereo partly drawn) [Example 20, 3-{4-[4-((S)-1-Cyclohexyl-ethylcarbamoyl)-2-phenyl-quinolin-3-ylmethyl]-piperazin-1-yl}-2-phenyl-propionic acid ethyl ester], 90 to 91 °C.
Then `C[C@H](NC(=O)c1c(CN2CCN(/C(=C/[N+](=O)[O-])N3CCCC3)CC2)c(-c2ccccc2)nc2ccccc12)c1ccccc1` [Example 12, 3-[4-(2-Nitro-1-pyrrolidin-1-yl-vinyl)-piperazin-1-ylmethyl]-2-phenyl-quinoline-4-carboxylic acid ((S)-1-phenyl-ethyl)-amide], with 164 to 165 °C; and `COc1cccc([C@H](C)NC(=O)c2c(CN3CCNCC3)c(-c3ccccc3)nc3ccccc23)c1` [Example 3, 2-Phenyl-3-piperazin-1-ylmethyl-quinoline-4-carboxylic acid[(S)-1-(3-methoxy-phenyl)-ethyl]-amide], with 147 to 153 °C; and `CCCN1CCN(Cc2c(-c3ccccc3)nc3ccccc3c2C(=O)N[C@@H](C)C2CCCCC2)CC1=O` [Example 36, 3-(3-Oxo-4-propyl-piperazin-1-ylmethyl)-2-phenyl-quinoline-4-carboxylic acid ((S)-1-cyclohexyl-ethyl)-amide], with 150 °C.
With `C[C@H](NC(=O)c1c(CN2CCN(CCS(C)(=O)=O)CC2)c(-c2ccccc2)nc2ccccc12)C1CCCCC1` [Example 21, 3-[4-(2-Methanesulfonyl-ethyl)-piperazin-1-ylmethyl]-2-phenyl-quinoline-4-carboxylic acid ((S)-1-cyclohexyl-ethyl)-amide], the melting point is 120 to 121 °C.
Under `C[C@H](NC(=O)c1c(CN2CCNCC2)c(-c2ccccc2)nc2cc3c(cc12)OCCO3)C1CCCCC1` [Example 9, 7-Phenyl-8-piperazin-1-ylmethyl-2,3-dihydro-[1,4]dioxino[2,3-g]quinoline-9-carboxylic acid ((S)-1-cyclohexyl-ethyl)-amide] stands 135 to 137 °C.
Then `C[C@H](NC(=O)c1c(CN2CCN(CCC(=O)O)CC2)c(-c2ccccc2)nc2ccccc12)C1CCCCC1` [Example 18, 3-{4-[4-((S)-1-Cyclohexyl-ethylcarbamoyl)-2-phenyl-quinolin-3-ylmethyl]-piperazin-1-yl}-propionic acid], with 192 to 195 °C.
Then `C[C@H](NC(=O)c1c(CN2CCNC(=O)C2)c(-c2ccccc2F)nc2ccccc12)C1CCCCC1` [Example 46, 2-(2-Fluorophenyl)-3-(3-oxopiperazin-1-ylmethyl)-quinoline-4-carboxylic acid ((S)-1-cyclohexyl-ethyl)-amide], with 167 to 169 °C.
Regarding `C[C@H](NC(=O)c1c(CN2CCNC(=O)C2)c(-c2ccccc2)nc2c(F)cccc12)C1CCCCC1` [Example 39, 8-Fluoro-3-(3-oxo-piperazin-1-ylmethyl)-2-phenylquinoline-4-carboxylic acid ((S)-1-cyclohexyl-ethyl)-amide], the melting point amounted to 165 °C.
Under `C[C@H](NC(=O)c1c(CN2CCN(CC(C(=O)O)c3ccccc3)CC2)c(-c2ccccc2)nc2ccccc12)C1CCCCC1` (stereo partly drawn) [Example 22, 3-{4-[4-((S)-1-Cyclohexyl-ethylcarbamoyl)-2-phenyl-quinolin-3-ylmethyl]-piperazin-1-yl}-2-phenyl-propionic acid] stands 144 to 145 °C.

The values above are taken from patent publication US20060223819A1, “Quinoline Derivatives as NK-3 Antagonists” (GlaxoSmithKline S.P.A. & Laboratoire, priority 2000, published 2006).
